The source of these data is PubChem BioAssay AID1996.

Structures are written as SMILES. ≈ marks a conversion by molar mass, not a printed value.

The conditions of the series: buffer; pH 7.4; 200.0 µM.
`O=C(CNC(=O)c1cnccc1C(F)(F)F)c1cccc(Cl)c1` came in with a kinetic solubility of 25.3 µg/mL (≈ 73.8 µM).
As to `CC(=O)Nc1csc2ccccc12`, the kinetic solubility was over 28.7 µg/mL.
Consider `O=S(=O)(Nc1ccc(O)c2ccccc12)c1cccs1`, for which the solubility (kinetic) is 24.9 µg/mL (≈ 81.5 µM).
Compound `CC(=O)c1ccc(N=C2SCCCN2C(=O)C2CCCC2)cc1` gave a solubility (kinetic) of 47.5 µg/mL (≈ 144 µM).
Turning to `O=C(O/N=C1\CCCc2ccccc21)c1cccs1`, the solubility (kinetic) was under 0.6 µg/mL.
As to `Cc1noc(C)c1C(=O)OCC(=O)Nc1ncc(Cl)c(C)c1Cl`, the kinetic solubility was over 53.7 µg/mL.
`Cc1ccc2c(c1)c1nc3ccccc3nc1n2C` registered a solubility (kinetic) of under 0.2 µg/mL.
The compound `CC(Sc1ccc(S(=O)(=O)N2CCCC2)cn1)C(N)=O` (stereo not drawn) gave a solubility (kinetic) of over 47.3 µg/mL.
Turning to `COc1ccc(OCCC(=O)Nc2ccc(S(N)(=O)=O)cc2)cc1`, the kinetic solubility came out at 48.1 µg/mL (≈ 137 µM).
The result for `CC1(/[N+]([O-])=C/c2ccc(Cl)cc2Cl)CCCCC1=O` (stereo not drawn) reads 42.9 µg/mL (≈ 143 µM).
As to `COC(=O)c1c(NC(C)=O)csc1C`, the solubility (kinetic) came out at 29.2 µg/mL (≈ 137 µM).
The compound `Cc1ccc(S(=O)(=O)Nc2cc3c4c(c2)CC(=O)N4CCC3)cc1` gave a kinetic solubility of 8.6 µg/mL (≈ 25.1 µM).
Take `Cc1ccc(NC(=O)CN(C)C(=O)COc2cccc3ccc(C)nc23)cc1`: the kinetic solubility was determined as 3.9 µg/mL (≈ 10.3 µM).
The figure for `O=c1cc(C(F)(F)F)nc(SCc2cccnc2)[nH]1` is over 43.1 µg/mL.
Consider `Cc1csc(NC(=O)CSc2nncc(=O)n2N)n1`, for which the kinetic solubility was over 44.8 µg/mL.
The compound `COC(=O)CNC(=O)COC(=O)/C=C/c1cccs1` displayed a kinetic solubility of over 42.5 µg/mL.
The compound `COc1ccc([N+](=O)[O-])cc1NCC(=O)c1ccc(C)cc1` had a solubility (kinetic) of 14.2 µg/mL (≈ 47.3 µM).
In the case of `COCCn1c(SCC(=O)N2CCOCC2)nnc1-c1ccco1`, the kinetic solubility is over 52.9 µg/mL.
In turn, `CN(C(=O)Cn1cc(C#N)c2ccccc21)c1ccccc1` showed a kinetic solubility of 7.4 µg/mL (≈ 25.6 µM).
`O=[N+]([O-])c1cc(Cl)ccc1NCCc1ccccn1` registered a kinetic solubility of 28.7 µg/mL (≈ 103 µM).
In turn, `CC(C)(C)OC(=O)C(C)(C)Sc1nnc(N)s1` gave a solubility (kinetic) of over 41.3 µg/mL.
For the compound `O=C(NCc1cccnc1)C12CC3CC(CC(Cl)(C3)C1)C2`, the solubility (kinetic) came to 43.2 µg/mL (≈ 142 µM).
`CCn1cc(S(=O)(=O)NCCc2ccc(F)cc2)cn1` yielded a solubility (kinetic) of over 44.6 µg/mL.
`Cc1csc(NC(=O)CSc2nccn2C)n1` displayed a solubility (kinetic) of over 40.3 µg/mL.
Regarding `COc1ccc(Nc2nc(N)c(C(=O)c3ccc(F)cc3)s2)cc1`, the solubility (kinetic) was 5.2 µg/mL (≈ 15.1 µM).
In the case of `Cc1c(Cl)cccc1NC(=O)NCc1cccnc1`, the kinetic solubility is over 41.4 µg/mL.
The compound `O=C(NC1CCCC1)c1cccc(Cl)c1` displayed a solubility (kinetic) of 32.6 µg/mL (≈ 146 µM).
`Cc1cc(NC(=O)C(C)SCC(=O)O)no1` (stereo not drawn): the solubility (kinetic) was over 36.6 µg/mL.
The figure for `O=C(CC1NCCNC1=O)Nc1ccccc1` (stereo not drawn) is over 35 µg/mL; for `O=C(N/N=C\c1cccnc1)c1ccc(Cl)cc1Cl` it is over 44.1 µg/mL; for `Cc1cccc(NC(=S)NC(=O)c2oc3ccccc3c2C)n1` it is under 0.2 µg/mL.
Turning to `COc1cc(C(F)(F)F)c(C(=O)NCc2cccc(Cl)c2)cn1`, the kinetic solubility was 5.3 µg/mL (≈ 15.4 µM).
The compound `O=C(CSc1nc2ccccc2c(=O)n1CCCN1CCOCC1)Nc1ccc(F)c(Cl)c1` showed a solubility (kinetic) of 18.5 µg/mL (≈ 37.7 µM). This solubility kinetic lies about 3.5-fold higher than the previous one.
On to `O=C(Cc1nc2ccccc2[nH]1)c1ccc([N+](=O)[O-])cc1`, for which the kinetic solubility is 37.8 µg/mL (≈ 134 µM).
For `Cc1csc(SCC(=O)Nc2cc(C(N)=O)cc(C(N)=O)c2)n1`, the solubility (kinetic) came out at 51.6 µg/mL (≈ 147 µM).
`CC(C)(C)OC(=O)CN1c2cccc3cccc(c23)S1(=O)=O` came in with a solubility (kinetic) of 14.9 µg/mL (≈ 46.7 µM).
Regarding `CC(C)(C)NS(=O)(=O)c1ccc(NC(=O)C2CCCO2)cc1` (stereo not drawn), the kinetic solubility was found to be 43.7 µg/mL (≈ 134 µM). Compared with the last compound, the solubility kinetic is about 2.9-fold higher.
For `CCCCOc1ccc(C(=O)NCCOc2cccc(OC)c2)cc1`, the solubility (kinetic) is 4 µg/mL (≈ 11.6 µM). This solubility kinetic is about 11-fold lower than that of the compound before.
As to `Cn1c(C2=C(O)CN(Cc3ccccc3)C2=N)[n+](C)c2ccccc21.[Cl-]`, the kinetic solubility was 48.2 µg/mL. Compared with the last compound, the solubility kinetic is about 12-fold higher.
`CC(=O)c1cccc(N2C(=O)CC(N3CCN(S(=O)(=O)c4ccccc4F)CC3)C2=O)c1` (stereo not drawn) came in with a solubility (kinetic) of over 68.9 µg/mL.
`COCCNC(=O)c1ccccc1NC(=O)CSc1ccc(C)cc1` gave a solubility (kinetic) of 36.6 µg/mL (≈ 102 µM).
The result for `Nc1cccc2c1C(=O)N(Cc1cccc(Cl)c1)C2=O` reads under 0.3 µg/mL; that for `NC(=O)c1ccc(NC(=O)COC(=O)C2CCN(S(=O)(=O)c3cccs3)CC2)cc1`, 25.1 µg/mL (≈ 55.6 µM); that for `CCN(c1ccccc1)S(=O)(=O)c1ccc(Oc2ccccc2C(C)=O)nc1`, 18.6 µg/mL (≈ 46.9 µM).
The figure for `Cc1cc(Br)ccc1N=C1NC(=O)CS1` is over 42.8 µg/mL; for `CN(Cc1ccccc1)C(=O)COC(=O)c1ccc(Cl)cc1N` it is 2.4 µg/mL (≈ 7.21 µM).
`Cc1cccc(NC2=C(Cl)C(=O)OC2OC(=O)c2ccco2)c1` (stereo not drawn) registered a kinetic solubility of 35.1 µg/mL (≈ 105 µM).
The figure for `CC(=O)c1cccc(NC(=O)c2cc(C)nn2-c2ccccc2)c1` is over 47.9 µg/mL; for `CC1=Nc2cc(C(=O)O)ccc2Sc2c(C)ccc(C)c21` it is 42.1 µg/mL (≈ 142 µM); for `O=C(/C=C/c1ccc(-c2cccc([N+](=O)[O-])c2)o1)N1CCOCC1` it is 3.9 µg/mL (≈ 11.9 µM).
As for `Cc1ccc2c(c1)N(Cc1cccc(C#N)c1)C=NS2(=O)=O`, the solubility (kinetic) worked out at 8.1 µg/mL (≈ 26 µM).
`Cc1ccccc1C(=O)NC(=S)N(CCO)Cc1ccccc1` yielded a solubility (kinetic) of over 49.3 µg/mL.
`Cc1cc(C(=O)NN=C2CCCC2)c2ccccc2n1`: the solubility (kinetic) is over 40.1 µg/mL.
Consider `CN1CCN(C(=S)C(=O)NCc2ccccc2)CC1`, for which the kinetic solubility was over 41.6 µg/mL.
The compound `O=C(NCC(O)c1ccccc1)Nc1cccs1` (stereo not drawn) registered a solubility (kinetic) of over 39.3 µg/mL.
The figure for `Cc1cccnc1N1C(=O)c2ccc(C(=O)O)cc2C1=O` is over 42.3 µg/mL; for `Cc1ccc2nc(SC(C)C(=O)NC3CCCC3)[nH]c2c1` (stereo not drawn) it is over 45.5 µg/mL; for `Cc1ccc(C(=O)OCC(=O)NC2CCCC2)cc1C` it is 15.8 µg/mL (≈ 57.4 µM).
In turn, `O=C(c1ccc(F)cc1)N1CCOCC1` gave a kinetic solubility of over 31.4 µg/mL.
The result for `O=C(NC1CCCCC1)Oc1cc2oc(=O)sc2cc1Cl` reads 10.1 µg/mL (≈ 30.8 µM).
As to `CCC(NC(=S)NCc1ccc(F)cc1)c1ccccc1` (stereo not drawn), the solubility (kinetic) was found to be 3.4 µg/mL (≈ 11.2 µM).
Compound `CC1CC(C)CN(C(=O)COC(=O)c2ccc3c(c2)OCO3)C1` (stereo not drawn) showed a kinetic solubility of 47 µg/mL (≈ 147 µM).
The figure for `O=C(Nc1cc(Cl)ccc1Cl)C1Cc2ccccc2O/C1=N\O` (stereo not drawn) is 2.8 µg/mL (≈ 7.97 µM); for `CCN(CC)C1=C(Cl)C(=O)C(Cl)C12OCCO2` (stereo not drawn) it is over 42 µg/mL; for `O=C(CCNC(=O)c1ccccc1)NCCCc1ccccc1` it is over 46.6 µg/mL.
The compound `O=C(COC(=O)c1cc(S(=O)(=O)N2CCOCC2)ccc1F)c1ccccc1` came in with a kinetic solubility of over 61.1 µg/mL.
`CCCn1c(SCC(=O)NC2CCC(C)CC2)n[nH]c1=O` (stereo not drawn): the kinetic solubility was over 46.9 µg/mL.
In turn, `CCCCN1C2=NC(c3ccccc3)CN2c2ccccc21.Cl` (stereo not drawn) gave a solubility (kinetic) of 44.1 µg/mL.
The figure for `CCC(CO)N=CC1=C(O)CC(c2ccccc2)CC1=O` (stereo not drawn) is over 43.1 µg/mL; for `COC(=O)c1ccc2c(c1)C(C)(C)C(/C=C/c1ccc(O)cc1)=[N+]2C.[I-]` it is 41.6 µg/mL.
As for `COC(=O)c1c(N)sc(C(=O)NCCc2ccccc2)c1C`, the solubility (kinetic) is over 47.8 µg/mL.
In the case of `O=C(c1ccc(Cl)cc1)N1CCc2c([nH]c3ccccc23)C1C(F)(F)F` (stereo not drawn), the kinetic solubility amounted to 1.4 µg/mL (≈ 3.7 µM).
As for `O=C(NCCC(=O)N1CCCCCCC1)c1ccc(Cl)cc1`, the kinetic solubility was over 48.4 µg/mL.
In turn, `Nc1ccc(Sc2nc3ccccc3[nH]2)cc1` came in with a solubility (kinetic) of over 36.2 µg/mL.
For the compound `Nc1nc(Nc2ccccc2F)nc(N2CCCC2)c1[N+](=O)[O-]`, the kinetic solubility came out at 25.8 µg/mL (≈ 81.1 µM).
The result for `COc1ccc(S(=O)(=O)n2c([N+](=O)[O-])cnc2C)cc1OC` reads over 49.1 µg/mL; that for `O=C(Cn1c(=O)oc2ccc(Cl)cc21)NC1CCCCC1`, 2.9 µg/mL (≈ 9.39 µM); that for `O=C(CN1C(=O)NC2(CCCCCC2)C1=O)NCCc1ccccc1`, over 51.5 µg/mL.
`COc1ccc(NC(=S)Nc2ccccc2)cc1` showed a solubility (kinetic) of over 38.8 µg/mL.
In turn, `CC1=C(C(=O)OCC2CCCCC2)C(c2ccc(F)cc2)NC(=O)N1` (stereo not drawn) displayed a solubility (kinetic) of 0.5 µg/mL (≈ 1.44 µM).
For the compound `Nc1cc(=O)[nH]c(SCC(=O)Nc2ccc(N3CCCCC3)cc2)n1`, the solubility (kinetic) came to 4.8 µg/mL (≈ 13.4 µM).
The figure for `CCOC(=O)c1ccc(NC(=O)c2cc(C)nc3ccccc23)cc1` is under 0.4 µg/mL; for `NC(=O)c1ccc(NC(=O)COC(=O)c2ccc3ccccc3n2)cc1` it is 18.8 µg/mL (≈ 53.8 µM); for `CCOC(=O)/C(=C/c1cn(C)c2ccccc12)NC(=O)c1ccccc1` it is 3.2 µg/mL (≈ 9.18 µM).
The compound `CCO/C=C1/C(=O)N(c2ccccc2OC)C(=O)c2ccccc21` returned a solubility (kinetic) of over 48.5 µg/mL.
Turning to `O=C(Nc1ccc(N2CCCCCC2)cc1)c1ccc[nH]1`, the solubility (kinetic) stood at 18.7 µg/mL (≈ 66 µM).
The figure for `O=Cc1cn(CC(=O)N2CCCCCC2)c2ccccc12` is over 42.7 µg/mL.
Compound `CCNC(=O)c1ccc(NS(=O)(=O)c2ccc3[nH]c(=O)[nH]c3c2)cc1` registered a kinetic solubility of over 54.1 µg/mL.
Regarding `Cc1ccnc(SCC(N)=O)n1`, the kinetic solubility is over 27.5 µg/mL.
Take `O=C(CNC(=O)c1ccccc1F)NCc1ccncc1`: the solubility (kinetic) is over 43.1 µg/mL.
`COc1cccc(CNC(=O)COC(=O)c2ccc(Cl)s2)c1` registered a solubility (kinetic) of 1.4 µg/mL (≈ 4.12 µM).
Take `Cc1onc(-c2ccccc2)c1C(=O)N=C(N)c1ccc(Cl)cc1`: the kinetic solubility turned out to be 1.1 µg/mL (≈ 3.24 µM).
Compound `COc1cccc(C2CCCN2Cc2nc(-c3cnccn3)no2)c1` (stereo not drawn) came in with a solubility (kinetic) of 44.9 µg/mL (≈ 133 µM).
In turn, `O=C(CCc1ccccc1)N1CCN(c2ccc(F)cc2)CC1` returned a solubility (kinetic) of over 46.9 µg/mL.
In turn, `O=C(NCCc1ccccc1)C(=O)NCC1CCNCC1` showed a kinetic solubility of over 43.4 µg/mL.
As to `S=C(Nc1cc(Cl)cc(Cl)c1)N1CCCC1`, the kinetic solubility was found to be 3 µg/mL (≈ 10.9 µM).
The result for `CN=C(C)/C(C(=O)OC)=C(/O)c1ccccc1F` reads 32.3 µg/mL (≈ 129 µM); that for `COc1ccc(Cl)cc1NC(=O)CCN1CCOCC1`, over 44.8 µg/mL.
Compound `COc1ccc(NC(=O)COc2ccc(Br)cc2)c(OC)c1` registered a kinetic solubility of under 0.8 µg/mL.
The result for `CC(C)N(C(=O)Cn1cc(SCC(N)=O)c2ccccc21)C(C)C` reads over 52.1 µg/mL.
The figure for `CN1C(=O)C(c2ccccc2)C(=O)N(C)C1=O` is 30.5 µg/mL (≈ 131 µM); for `O=C(NC1CCCc2ccccc21)N[C@@H](Cc1ccccc1)C(=O)O` (stereo partly drawn) it is over 50.8 µg/mL.
Take `O=[N+]([O-])c1cccc(S(=O)(=O)NCCc2cn3ccccc3n2)c1`: the solubility (kinetic) worked out at 48.5 µg/mL (≈ 140 µM).
